The test system of one experiment is skeletal muscle atrophy. The experiment in a line: Animal models of skeletal muscle atrophy, summary of FIGS. 1-5. Format: in vivo. Conditions: theophylline alone.
For experiment [1], the system named is denervated tibialis anterior and medial gastrocnemius muscles. The experiment in a line: Mouse denervation atrophy model, agonists subcutaneously 2x daily with theophylline (FIG. 1). Format: in vivo. Conditions: male mice, right sciatic nerve denervation; 0.1 and 0.3 mg/kg s.c. 2x daily + theophylline 30 mg/kg i.p. 2x daily, nine days; versus saline. On the procedure: Legend for the X-axis: A: Saline, B: VPAC1R agonist (0.1 mg/kg)+T, C: VPAC1R agonist (0.3 mg/kg)+T, D: VPAC2R agonist (0.1 mg/kg)+T, E: VPAC2R agonist (0.3 mg/kg)+T, F: PACAP-38 (0.1 mg/kg)+T, G: PACAP-38 (0.3 mg/kg)+T.
(VPAC1R agonist), the VPAC2 receptor selective agonist, Ro 25-1553 (VPAC2R agonist), or the VPAC1/VPAC2 receptor nonselective agonist, PACAP-38. Following denervation of the right sciatic nerve, male mice were injected subcutaneously in the midscapular region twice daily, with either the above indicated agents at the doses indicated in FIGS. 1A and 1B or vehicle control (physiological saline) for nine days. These agonists were co-administered with twice daily intra-peritoneal dosing of the phosphodiesterase inhibitor theophylline (T-30 mg/kg) (included to increase the magnitude and the duration of action of cAMP signals induced by the VPAC receptor agonists). On day nine, the medial gastrocnemius and tibialis anterior muscles were removed and weighed to determine the degree of atrophy. […] Statistical significance of the results were determined using ANCOVA (Douglas C. Montgomery, Design and Analysis of Experiments, John Wiley and Sons, New York (2nd ed. 1984)).
The sciatic nerve denervation atrophy model involves anesthetizing the animal followed by the surgical removal of a short segment of either the right or left sciatic nerve, e.g. in mice the sciatic nerve is isolated approximately at the midpoint along the femur and a 3-5 mm segment is removed. This denervates the lower hind limb musculature resulting in atrophy of these muscles. Typically, innervation to the biceps femoris is left intact to provide satisfactory motion of the knee for virtually normal ambulation. Typically, in untreated animals, muscle mass of the denervated muscles is reduced 30-50% ten days following denervation. Following denervation, test compounds are administered e.g., by injection or by continuous infusion, e.g. via implantation of an osmotic minipump (e.g. Alza, Palo Alto, Calif.), to determine their effect on denervation induced skeletal muscle atrophy. At various times following denervation, the animals are euthanized and lower leg muscles are dissected rapidly from both the denervated and nondenervated legs, the muscles, cleaned of tendons and connective tissue, are weighed. The extent of atrophy in the affected muscles is analyzed, for example, by measuring muscle mass, muscle cross-sectional area, myofiber cross-sectional area or contractile protein content.

Experiment [2] has as its system glucocorticoid-induced atrophied tibialis anterior and medial gastrocnemius muscles. As to the kind of experiment: Mouse glucocorticoid (dexamethasone)-induced atrophy model (FIG. 3). The class given is in vivo. To be noted: male mice, dexamethasone 1.2 mg/kg/d in drinking water; 0.1 and 0.3 mg/kg s.c. 2x daily + theophylline 30 mg/kg i.p., nine days. On the procedure:
Legend for the X-axis: 1: Saline+Dexamethasone (1.2 mg/kg/day included in the drinking water), 2: PACAP-38 (0.1 mg/kg)+Dexamethasone+T, 3: PACAP-38 (0.3 mg/kg)+Dexamethasone+T, 4: VPAC1R agonist (0.1 mg/kg)+Dexamethasone+T, 5: VPAC1R agonist (0.3 mg/kg)+Dexamethasone+T, 6: VPAC2R agonist (0.1 mg/kg)+Dexamethasone+T, 7: VPAC2R agonist (0.3 mg/kg)+Dexamethasone+T.
(VPAC1R agonist), the VPAC2 receptor selective agonist, Ro 25-1553 (VPAC2R agonist), or the VPAC1/VPAC2 receptor nonselective agonist, PACAP-38. Following the addition of the glucocorticoid, dexamethasone to the drinking water (1.2 mg/kg/d), male mice were injected subcutaneously in the midscapular region twice daily, with either the above indicated agents at the doses indicated in FIGS. 3A and 3B or vehicle control (physiological saline) for nine days. These agonists were co-administered with twice daily intra-peritoneal dosing of the phosphodiesterase inhibitor theophylline (T—30 mg/kg). Nine days following the initiation of dosing of the VPAC receptor agonists and dexamethasone, the medial gastrocnemius and tibialis anterior muscles were removed and weighed to determine the degree of atrophy. […] Statistical significance of the results were determined using ANCOVA.
The glucocorticoid induced atrophy model involves the administration of a glucocorticoid to the test animal, e.g. 1.2 mg/kg/day of dexamethasone in the drinking water. Typically, in untreated animals, skeletal muscle mass is reduced 30-50% following ten days of dexamethasone administration. Concomitantly with, or following glucocorticoid administration, test compounds are administered e.g., by injection or by continuous infusion to determine their effect on glucocorticoid induced skeletal muscle atrophy. At various times following glucocorticoid administration, the extent of atrophy in the affected muscles is analyzed as described above for the denervation model.

Experiment [3] concerns denervated and non-denervated (control) tibialis anterior and medial gastrocnemius muscles. As to the kind of experiment: Mouse denervation atrophy model, continuous infusion by osmotic minipump (FIG. 2). Conditions: male mice, continuous infusion by osmotic minipump 0.3, 1, 3 mg/kg daily, no theophylline, day nine. The class given is in vivo. On the procedure:
Legend for the X-axis: A: water infused, B: VPAC1R agonist (0.3 mg/kg), C: VPAC1R agonist (1 mg/kg), D: VPAC1R agonist (3 mg/kg), E: VPAC2R agonist (0.3 mg/kg), F: VPAC2R agonist (1 mg/kg), G: VPAC2R agonist (3 mg/kg), H: PACAP-38 (0.3 mg/kg), I: PACAP-38 (1 mg/kg), PACAP-38 (3 mg/kg).
(VPAC1R agonist), the VPAC2 receptor selective agonist, Ro 25-1553 (VPAC2R agonist), or the VPAC1/VPAC2 receptor nonselective agonist, PACAP-38. Following denervation of the right sciatic nerve, male mice were dosed with the above indicated agents or vehicle control (physiological saline) by continuous infusion using an ALZeT osmotic minipump at 5 μl/hr until the end of the experimental period. The daily delivered dose of the agents are as indicated on FIGS. 2A and 2B. Minipump implantation was performed at the same time as the sciatic nerve denervation. On day nine the medial gastrocnemius and tibialis anterior muscles were removed and weighed to determine the degree of atrophy. […] Statistical significance of the results were determined using ANCOVA.
The sciatic nerve denervation atrophy model involves anesthetizing the animal followed by the surgical removal of a short segment of either the right or left sciatic nerve, e.g. in mice the sciatic nerve is isolated approximately at the midpoint along the femur and a 3-5 mm segment is removed. This denervates the lower hind limb musculature resulting in atrophy of these muscles. Typically, innervation to the biceps femoris is left intact to provide satisfactory motion of the knee for virtually normal ambulation. Typically, in untreated animals, muscle mass of the denervated muscles is reduced 30-50% ten days following denervation. […] The extent of atrophy in the affected muscles is analyzed, for example, by measuring muscle mass, muscle cross-sectional area, myofiber cross-sectional area or contractile protein content.

Experiment [4] relates to casting-induced atrophied tibialis anterior muscle and normal medial gastrocnemius muscle. As to the kind of experiment: Mouse disuse (casting) atrophy model (FIG. 4). Format: in vivo. Conditions: male mice, right hind leg cast; 0.03, 0.1, 0.3 mg/kg s.c. 2x daily + theophylline 30 mg/kg i.p., nine days. The procedure:
(§1) Legend for the X-axis: A: Saline, B: VPAC2R agonist (0.03 mg/kg)+T, C: VPAC2R agonist (0.1 mg/kg)+T, D: VPAC2R agonist (0.3 mg/kg)+T.
Following casting of the right hind leg, male mice were injected subcutaneously in the midscapular region twice daily, with either the above indicated agent at the doses indicated in FIGS. 4A and 4B or vehicle control (physiological saline) for nine days. The VPAC2R agonist was co-administered with twice daily intra-peritoneal dosing of the phosphodiesterase inhibitor theophylline (T—30 mg/kg). On day nine, the medial gastrocnemius and tibialis anterior muscles were removed and weighed to determine the degree of atrophy. […] Statistical significance of the results were determined using ANCOVA.
The leg casting disuse atrophy model involves casting one hind leg of an animal from the knee down through the foot. Typically, muscle mass is reduced 20-40% after ten days of casting. Following casting, test compounds are administered by injection or by continuous infusion via implantation of an osmotic minipump (e.g. Alza, Palo Alto, Calif.) to determine their effect on leg casting induced skeletal muscle atrophy. At various times following leg casting, the extent of atrophy in the affected muscles is analyzed as described above for the denervation model.

In experiment [5] the test system is denervated tibialis anterior and extensor digitorum longus (EDL) muscles. As to the kind of experiment: Rat denervation atrophy model (FIG. 5). The class given is in vivo. To be noted: male rats, right sciatic nerve denervation; 0.03, 0.1, 0.3 mg/kg s.c. 2x daily + theophylline 30 mg/kg i.p., nine days. On the procedure: as §1
Following denervation of the right sciatic nerve, male rats were injected subcutaneously in the midscapular region twice daily, with either the VPAC2R receptor agonist at the doses indicated in FIGS. 5A and 5B or vehicle control (physiological saline) for nine days. The VPAC2R receptor agonist was co-administered with twice daily intra-peritoneal dosing of the phosphodiesterase inhibitor theophylline (T—30 mg/kg). On day nine, the tibialis anterior and extensor digitorum longus (EDL) muscles were removed and weighed to determine the degree of atrophy. […] Statistical significance of the results were determined using ANCOVA.
The sciatic nerve denervation atrophy model involves anesthetizing the animal followed by the surgical removal of a short segment of either the right or left sciatic nerve, e.g. in mice the sciatic nerve is isolated approximately at the midpoint along the femur and a 3-5 mm segment is removed. This denervates the lower hind limb musculature resulting in atrophy of these muscles. […] The extent of atrophy in the affected muscles is analyzed, for example, by measuring muscle mass, muscle cross-sectional area, myofiber cross-sectional area or contractile protein content.

The subject of experiment [6] is atrophy of the skeletal muscle of the entire body due to disuse. As to the kind of experiment: Prophylactic treatment of skeletal muscle atrophy in a comatose subject (Example 11). The class given is in vivo. Conditions: human 50 kg, 3 ml of 500 mg/ml with D,L lactic and glycolic acid copolymer i.m. once each month. The procedure:
A human subject weighing 50 kg is admitted to the hospital in a comatose state. The subject is treated to prevent atrophy of the skeletal muscle of the entire body due to disuse while in the comatose state. Specifically, once each month while in the coma, the subject is administered, via intramuscular injection, 3 ml of an aqueous solution of pH 6.0 comprising the following: […]

For the next experiment, the target named is T1, VPAC2 receptor (Homo sapiens, UniProt P41587).
T1 sequence (P41587 24-438): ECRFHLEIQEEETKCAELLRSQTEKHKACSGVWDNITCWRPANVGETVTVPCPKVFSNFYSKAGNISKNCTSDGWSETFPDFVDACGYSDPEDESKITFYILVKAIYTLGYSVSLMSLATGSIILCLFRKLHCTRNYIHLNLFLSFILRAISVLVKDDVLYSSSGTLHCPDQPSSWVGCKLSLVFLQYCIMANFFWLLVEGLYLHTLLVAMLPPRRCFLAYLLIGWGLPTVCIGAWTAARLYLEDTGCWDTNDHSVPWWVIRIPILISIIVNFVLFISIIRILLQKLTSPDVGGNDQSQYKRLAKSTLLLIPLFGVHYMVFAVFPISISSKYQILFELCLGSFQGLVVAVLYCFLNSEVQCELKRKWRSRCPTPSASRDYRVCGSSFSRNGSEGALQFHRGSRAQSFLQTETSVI
To be noted: relative to PACAP38; cited from earlier work.

The next experiment concerns the target T2, VPAC1 receptor (Homo sapiens, UniProt P32241).
T2 sequence (P32241 31-457): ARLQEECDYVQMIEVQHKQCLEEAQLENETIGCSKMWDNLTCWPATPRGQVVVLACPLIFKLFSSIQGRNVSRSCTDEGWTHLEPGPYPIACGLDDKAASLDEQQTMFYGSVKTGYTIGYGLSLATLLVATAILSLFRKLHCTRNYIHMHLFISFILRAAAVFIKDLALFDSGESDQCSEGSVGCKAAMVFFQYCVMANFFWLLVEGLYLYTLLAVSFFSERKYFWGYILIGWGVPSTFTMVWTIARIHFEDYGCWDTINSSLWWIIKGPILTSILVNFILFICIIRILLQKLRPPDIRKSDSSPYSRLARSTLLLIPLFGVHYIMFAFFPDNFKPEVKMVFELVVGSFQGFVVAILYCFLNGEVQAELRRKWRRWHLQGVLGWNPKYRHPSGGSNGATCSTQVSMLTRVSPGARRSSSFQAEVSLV
Conditions: relative to PACAP38; cited from earlier work.

Ends that are not written are not given here.

Take `Cn1c(=O)c2[nH]cnc2n(C)c1=O` [Theophylline, theophylline]: the “effect of theophylline administered by itself in the atrophy models” value in the experiment on skeletal muscle atrophy is “no effect”.
For the compound “PACAP-38 (HSDGIFTDSYSRYRKQMAVKKYLAAVLGKRYKQRVKNK; ends and bridges not checked; UniProt P18509 132-169, looked up)”, in experiment [1], the “atrophy of the denervated medial gastrocnemius muscle (muscle weight, FIG. 1B)” value (“atrophy … (muscle weight, FIG. 1B)” for short) is recorded as “inhibited atrophy” and the “atrophy of the denervated tibialis anterior muscle (muscle weight, FIG. 1A)” value was “inhibited atrophy”. For the same compound, the “muscle atrophy of the medial gastrocnemius induced by glucocorticoid administration (FIG. 3B)” value in experiment [2] is “inhibits muscle atrophy”.
As to Ro 25-1553, in experiment [1], the “atrophy … (muscle weight, FIG. 1B)” value was “inhibited atrophy” and the “atrophy of the denervated tibialis anterior muscle (muscle weight, FIG. 1A)” value is “inhibited atrophy”. Moreover, the “atrophy of the denervated tibialis anterior muscle (muscle weight, FIG. 2A)” value in experiment [3] (sciatic denervation) was “inhibited atrophy”. In experiment [3], the “hypertrophy of the non-denervated (control) medial gastrocnemius muscle (FIG. 2B)” value is listed as “induced hypertrophy” and the “hypertrophy of the non-denervated (control) tibialis anterior muscle (FIG. 2A)” value is listed as “induced hypertrophy”. In addition, in [2], the “muscle atrophy of the medial gastrocnemius induced by glucocorticoid administration (FIG. 3B)” value is given as “inhibited muscle atrophy” and the “muscle atrophy of the tibialis anterior induced by glucocorticoid administration (FIG. 3A)” value was “inhibited muscle atrophy”. In addition, in experiment [4], the “disuse-induced atrophy of the tibialis anterior muscle (FIG. 4A)” value is “inhibited disuse-induced atrophy” and the “hypertrophy of the medial gastrocnemius muscle (normal, FIG. 4B)” value is “induced hypertrophy”. Further, in experiment [5], the “atrophy of the denervated EDL muscle (FIG. 5B)” value is recorded as “inhibited atrophy” and the “atrophy of the denervated tibialis anterior muscle (FIG. 5A)” value is “inhibited atrophy”. For the same compound, the “skeletal muscle mass and physical therapy needs” value in experiment [6] is “measurable preservation of skeletal muscle mass and reduced physical therapy needs”. Besides, the “potency as VPAC2 receptor selective agonist” value at VPAC2 receptor is given as “potency similar to PACAP38”.
On to “[K^15, R^16, L^27VIP(1-7), GRF(8-27)-NH2]”, for which, in experiment [1], the “atrophy … (muscle weight, FIG. 1B)” value was “inhibited atrophy”. For the same compound, the “muscle atrophy of the tibialis anterior induced by glucocorticoid administration (FIG. 3A)” value in experiment [2] is given as “inhibited muscle atrophy”. Besides, on VPAC1 receptor, the “potency as VPAC1 receptor selective agonist” value is given as “potency similar to PACAP38”.

Source of the values: patent publication US6750194B1, “Methods of identifying compounds for regulating muscle mass or function using vasoactive intestinal peptide receptors” (The Procter & Gamble Company, priority 2000, dated 2004).
